In one data set the test system is DENV-2. Kind of data set: microbe, parasite or virus in culture. Conditions: Dengue virus, DENV2, Vero, 48 h, read-out: % inhibition.
For data set [1], the target named is T1, NS2B(H)-NS3pro (DENV-2 NS2B-NS3 protease) (Dengue virus 2 Thailand/NGS-C/1944, UniProt P14340).
T1 sequence (P14340 1394-1433 limits assumed): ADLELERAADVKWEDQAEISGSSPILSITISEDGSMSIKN
T1 sequence (P14340 1476-1660 limits assumed): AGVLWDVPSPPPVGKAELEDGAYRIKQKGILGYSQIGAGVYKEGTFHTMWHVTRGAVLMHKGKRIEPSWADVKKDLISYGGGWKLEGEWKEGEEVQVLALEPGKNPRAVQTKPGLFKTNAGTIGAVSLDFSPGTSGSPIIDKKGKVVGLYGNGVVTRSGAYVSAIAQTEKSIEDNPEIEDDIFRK
As to the kind of experiment: biochemical. Conditions: read-out: % inhibition.

The target in data set [2] is T1, NS2B(H)-NS3pro (DENV-2 NS2B-NS3 protease). As to the kind of experiment: biochemical. Conditions: read-out: % inhibition. The source holds these as a separate data set.
For data set [3] the target is unchanged. As to the kind of experiment: fluorometric protease assay, AMC substrate. Conditions: read-out: % inhibition at 50 μM. Format: biochemical.
Data set [4] has the same target. Conditions: read-out: IC50 (C7.5-HEPES AMC); AMC substrate, HEPES pH 7.5, CHAPS; inhibitor.
In data set [5] the target is T2, DENV2proHeLa NS2B-NS3 protease (Dengue virus 2 Thailand/16681/84, UniProt P29990). As to the kind of experiment: cell-based. The arrangement: species or system DENV2proHeLa (HeLa).
T2 sequence (P29990 1476-2093 limits assumed): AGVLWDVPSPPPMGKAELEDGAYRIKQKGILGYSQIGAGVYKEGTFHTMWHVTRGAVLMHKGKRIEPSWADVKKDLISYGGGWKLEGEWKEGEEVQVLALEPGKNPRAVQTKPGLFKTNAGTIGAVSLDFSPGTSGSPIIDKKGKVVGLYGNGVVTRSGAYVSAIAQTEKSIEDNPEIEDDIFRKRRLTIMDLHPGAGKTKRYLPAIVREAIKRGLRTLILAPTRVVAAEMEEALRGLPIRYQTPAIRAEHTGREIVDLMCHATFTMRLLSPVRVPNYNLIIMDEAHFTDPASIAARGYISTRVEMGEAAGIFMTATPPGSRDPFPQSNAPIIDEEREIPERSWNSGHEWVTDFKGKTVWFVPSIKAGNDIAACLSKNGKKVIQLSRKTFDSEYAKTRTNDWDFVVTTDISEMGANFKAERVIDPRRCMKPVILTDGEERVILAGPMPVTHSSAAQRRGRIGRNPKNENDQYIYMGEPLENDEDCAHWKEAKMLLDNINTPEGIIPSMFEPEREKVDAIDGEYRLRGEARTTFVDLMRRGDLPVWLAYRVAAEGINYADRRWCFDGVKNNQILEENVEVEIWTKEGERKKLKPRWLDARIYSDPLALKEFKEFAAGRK
T2 sequence (P29990 1346-1475 partner limits assumed): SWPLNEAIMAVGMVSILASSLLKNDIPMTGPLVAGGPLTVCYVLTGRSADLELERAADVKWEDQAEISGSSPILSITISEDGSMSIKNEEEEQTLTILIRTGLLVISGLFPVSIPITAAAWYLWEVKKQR
A short description of data set [6]: in vitro. The arrangement: species or system DENV2proHeLa (HeLa). Conditions: human, denv2prohela cells.
The target in data set [7] is T2, DENV2proHeLa NS2B-NS3 protease. As to the kind of experiment: cell-based. The arrangement: species or system DENV2proHeLa (HeLa). Conditions: HeLa, read-out: % inhibition.
Data set [8] addresses T1, NS2B(H)-NS3pro (DENV-2 NS2B-NS3 protease). As to the kind of experiment: biochemical. Conditions: read-out: % inhibition. This is another data set of the same source.
For data set [9] the target is unchanged. Conditions: read-out: IC50 (C7.5-HEPES AMC); AMC substrate, HEPES pH 7.5, CHAPS; inhibitor. The source holds these as a separate data set.
Data set [10] has the same target. Kind of data set: biochemical. Conditions: read-out: % inhibition. The source holds these as a separate data set.
Data set [11] has as its target T2, DENV2proHeLa NS2B-NS3 protease. As to the kind of experiment: cell-based. The arrangement: species or system DENV2proHeLa (HeLa). Conditions: HeLa, read-out: % inhibition. This is another data set of the same source.
The target is the same in data set [12]. Kind of data set: cell-based. Also on record: species or system DENV2proHeLa (HeLa). The source holds these as a separate data set.
Data set [13] in a line: in vitro. Also on record: species or system DENV2proHeLa (HeLa). Conditions: human, denv2prohela cells. The source holds these as a separate data set.
In data set [14] the target is T2, DENV2proHeLa NS2B-NS3 protease. Kind of data set: cell-based. Also on record: species or system DENV2proHeLa (HeLa). Conditions: HeLa, read-out: % inhibition. This is another data set of the same source.
Data set [15] can be described thus: in vitro. Conditions: human, denv2prohela cells. Also on record: species or system DENV2proHeLa (HeLa). This is another data set of the same source.
For data set [16], the target named is T1, NS2B(H)-NS3pro (DENV-2 NS2B-NS3 protease). Kind of data set: biochemical. Conditions: read-out: % inhibition. The source holds these as a separate data set.
For data set [17] the target is unchanged. As to the kind of experiment: fluorometric protease assay, AMC substrate. Format: biochemical. Conditions: pH 7.5, HEPES, CHAPS; substrate Bz-nKRR-AMC.
Data set [18] concerns the target T2, DENV2proHeLa NS2B-NS3 protease. As to the kind of experiment: cell-based.
The mark [19] stands for this setting: read-out: DENV2proHeLa EC50, inhibitor.

Read-outs that look alike come from different tables or passages of the source.

As a reminder, the inhibition is the percentage by which the read-out fell short of the control. On to `CCCCCC(=O)N[C@H](C(=O)NCc1ccc(NC(=N)N)cc1)c1ccc(OCc2ccccc2)cc1` [NK-189], for which the inhibition at 25 µM in the data set on DENV-2 stood at 21%. Moreover, the inhibition at 50 µM in data set [1] stood at 97%; in [2] it was 95%.

As for `CCCCCC(=O)N[C@H](C(=O)Nc1cccc(C(N)=O)c1)c1ccc(OCc2ccccc2)cc1` [compound 2], in data set [3], the inhibition at 50 µM was found to be 64 ± 5.1%.

A word on the IC50: it is the concentration needed to halve the response being measured. The EC50 is the midpoint of the concentration-response curve. A word on the CC50: it is the concentration at which the toxic effect on the cells reaches its halfway point. Low readings indicate harm at low concentration, high ones better tolerance by the cells. In the case of `CCCCC(CC)C(=O)N[C@H](C(=O)Nc1cccc(C(N)=O)c1)c1ccc(OCc2ccccc2)cc1` (stereo partly shown) [compound 20, 20], in data set [4], the IC50 came out at 22 µM. In addition, the EC50 in data set [5] (setting [19]) worked out at 11 µM. Also, the CC50 in the data set “in vitro [6]” was greater than 50 µM. Besides, in the data set with DENV-2, the inhibition at 25 µM was found to be 90%. Further, in data set [7], the inhibition at 12.5 µM was 63%.

In the case of `NC(=O)c1cccc(NC(=O)[C@@H](NC(=O)C2COc3ccccc3C2)c2ccc(OCc3ccccc3)cc2)c1` (stereo partly shown) [compound 26, 26], in data set [4], the IC50 came to 16 µM. In addition, in [5], it took 6.8 µM to reach a half-maximal effect (EC50). This compound also came in with a CC50 in the data set “in vitro [6]” greater than 50 µM. In [8], the inhibition at 50 µM worked out at 88%. In addition, the inhibition at 12.5 µM in data set [7] worked out at 77%.

For `CC(C(=O)N[C@H](C(=O)Nc1cccc(C(N)=O)c1)c1ccc(OCc2ccccc2)cc1)c1ccccc1` (stereo partly shown) [compound 28, 28], the IC50 in data set [9] is 17 µM. The inhibition at 50 µM in data set [10] amounted to 83%. The inhibition at 12.5 µM in data set [11] was determined as 77%. For the same compound, the EC50 in data set [12] amounted to 8 µM. This compound displayed a CC50 in “in vitro [13]” greater than 50 µM.

Regarding `Cc1onc(-c2ccc(F)cc2)c1C(=O)N[C@H](C(=O)Nc1cccc(C(N)=O)c1)c1ccc(OCc2ccccc2)cc1` [compound 29, 29], the IC50 in data set [9] turned out to be 14 µM. For the same compound, the inhibition at 50 µM in data set [10] was determined as 82%. In addition, the inhibition at 12.5 µM in [11] was 64%. In “in vitro [13]”, the CC50 was greater than 50 µM.

For the compound `COc1cc(CC(=O)N[C@H](C(=O)Nc2cccc(C(N)=O)c2)c2ccc(OCc3ccccc3)cc2)cc(OC)c1OC` [compound 31], the inhibition at 12.5 µM in [11] was 75%. For the same compound, the inhibition at 25 µM in the data set with DENV-2 stood at 11%. Further, in [3], the inhibition at 50 µM turned out to be 76%. Moreover, the EC50 in [12] (setting [19]) was 12 µM. Moreover, the CC50 in the data set “in vitro [13]” is greater than 50 µM.

As for `NC(=O)c1cccc(NC(=O)[C@@H](NC(=O)OCc2ccccc2)c2ccc(OCc3ccccc3)cc2)c1` [compound 36, 36], the IC50 in data set [9] is 28 µM. Also, the inhibition at 12.5 µM in data set [11] was 60%. Also, in [12], the EC50 stood at 5 µM. The compound also showed a CC50 in the data set “in vitro [13]” of no less than 50 µM.

With `NC(=O)c1cccc(NC(=O)C(Cc2ccc(OCc3ccc4ccccc4c3)cc2)NC(=O)c2ccc(Oc3ccccc3)cc2)c1` (stereo not shown) [compound 63], the inhibition at 12.5 µM in [14] came to 82%. Besides, the CC50 in “in vitro [15]” amounted to 16 µM. Also, in [16], the inhibition at 50 µM turned out to be 100%. In data set [17], the 50% inhibitory concentration (IC50) was determined as 4.8 µM. Moreover, in data set [18], a half-maximal response (EC50) required 5.1 µM.

`CC(C(=O)NC(Cc1c[nH]c2ccccc12)C(=O)Nc1cccc(C(N)=O)c1)c1ccc2c(c1)[nH]c1ccc(Cl)cc12` (stereo not shown) [compound 67, 67]: the inhibition at 12.5 µM in data set [14] was 91%. The same compound displayed a CC50 in “in vitro [15]” of 16 µM. The inhibition at 50 µM in data set [16] was 91%.

In the case of `NC(=O)c1cccc(NC(=O)C(Cc2c[nH]c3ccccc23)NC(=O)c2ccc(Oc3ccccc3)cc2)c1` (stereo not shown) [compound 69, 69], the inhibition at 12.5 µM in [14] is 65%. In the data set “in vitro [15]”, this compound returned a CC50 greater than 50 µM. For the same compound, in [16], the inhibition at 50 µM was determined as 80%.

The values are drawn from paper doi:10.1101/2024.06.05.597555v1 (biorxiv, 2024).
